Values of other authors in US20230201393A1, “DI[…] AND METHODS USING POLYMER COMPOSITIONS THAT FORM CHLORINE DIOXIDE GAS” (priority 2020, published 2023).

Tests used:
[1] = test system: Influenza A
[2] = test system: poliovirus 1; conditions: 4 ppm ClO2, 5 minutes of exposure

Q: For `[O][Cl+][O-]` [Chlorine dioxide], which survival rate ([1]; 0.03 ppm ClO2 administered after, versus 30% when untreated) is on record?
A: The survival rate was 100%.

Q: And the log kill ([1]; 0.03 ppm of ClO2 administered at the same time as the virus)?
A: Its log kill is 4 log.

Q: What about the inactivation [2] of the same compound?
A: Its inactivation is at least 99.9%.

Q: And the miscibility in water?
A: Its miscibility in water is “up to 60 g/L”.
